What was measured:
Assay in all cases: Bliss excess, mean over the matrix (fraction); higher = more synergy
[1] = tested on: BT-549 (Breast Carcinoma)
In short: (§1)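 Bliss excess equals the observed combination effect minus the expected value EA + EB − EA·EB, where EA and EB are the effects of each agent alone. Combination Emax is the second-highest inhibition within the matrix. Inhibition was scaled from CellTiter-Glo 2.0 luminescence, with 0 set by vehicle wells and 1 by blank wells, after 72 hours of two-drug dosing of cells plated in 1536-well plates.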

[2] = tested on: Caov-4 (Ovarian Carcinoma)
In short: as §1

[3] = tested on: EFM-19 (Breast Carcinoma)
In short: as §1

EW-24 (Ewing's Sarcoma) = tested on: EW-24 (Ewing's Sarcoma)
In short: as §1

[4] = tested on: EoL-1-cell (Acute Myeloid Leukemia)
In short: as §1

[5] = tested on: HOP-62 (Lung Adenocarcinoma)
In short: as §1

[6] = tested on: Hs-766T (Pancreatic Carcinoma)
In short: as §1

[7] = tested on: KARPAS-299 (T-Cell Non-Hodgkin's Lymphoma)
In short: as §1

[8] = tested on: KMOE-2 (Acute Myeloid Leukemia)
In short: as §1

[9] = tested on: KYSE-450 (Esophageal Squamous Cell Carcinoma)
In short: as §1

[10] = tested on: LU-65 (Non-Small Cell Lung Carcinoma)
In short: as §1

[11] = tested on: MIA-PaCa-2 (Pancreatic Carcinoma)
In short: as §1

[12] = tested on: MLMA (Other Blood Carcinomas)
In short: as §1

[13] = tested on: NCI-H727 (Other Solid Carcinomas)
In short: as §1

[14] = tested on: NUGC-3 (Gastric Carcinoma)
In short: as §1

[15] = tested on: OSC-20 (Oral Cavity Carcinoma)
In short: as §1

PWR-1E (Non-Cancerous) = tested on: PWR-1E (Non-Cancerous)
In short: as §1

TGW (Neuroblastoma) = tested on: TGW (Neuroblastoma)
In short: as §1

[16] = tested on: VA-ES-BJ (Other Solid Carcinomas)
In short: as §1

YH-13 (Glioblastoma) = tested on: YH-13 (Glioblastoma)
In short: as §1

| SMILES | Bliss excess [1] | Bliss excess [2] | Bliss excess [3] | Bliss excess (EW-24 (Ewing's Sarcoma)) | Bliss excess [4] | Bliss excess [5] | Bliss excess [6] | Bliss excess [7] | Bliss excess [8] | Bliss excess [9] | Bliss excess [10] | Bliss excess [11] | Bliss excess [12] | Bliss excess [13] | Bliss excess [14] | Bliss excess [15] | Bliss excess (PWR-1E (Non-Cancerous)) | Bliss excess (TGW (Neuroblastoma)) | Bliss excess [16] | Bliss excess (YH-13 (Glioblastoma)) |
| --- | --- | --- | --- | --- | --- | --- | --- | --- | --- | --- | --- | --- | --- | --- | --- | --- | --- | --- | --- | --- |
| CCN(CCO)CCCOc1ccc2c(Nc3cc(CC(=O)Nc4cccc(F)c4)[nH]n3)ncnc2c1 [AZD2811] + C=CCn1c(=O)c2cnc(Nc3ccc(N4CCN(C)CC4)cc3)nc2n1-c1cccc(C(C)(C)O)n1 [AZD1775] (first compound max 1 µM, partner max 1 µM) | 0.017 | -0.0258 | -0.0269 | 0.0045 | -0.0033 | -0.0287 | -0.0445 | 0.0057 | -0.0181 | -0.0206 | -0.0557 | 0.0756 | 0.0432 | -0.0909 | 0.0104 | -0.0449 | 0.118 | -0.0083 | 0.0263 | -0.003 |
| CCN(CCO)CCCOc1ccc2c(Nc3cc(CC(=O)Nc4cccc(F)c4)[nH]n3)ncnc2c1 [AZD2811] + C[C@@H]1COCCN1C2=NC(=NC(=C2)C3(CC3)[S@](=N)(=O)C)C4=C5C=CNC5=NC=C4 [AZD6738] (first compound max 1 µM, 7x7, partner max 10 µM) | 0.0066 | -0.0065 | -0.0478 | -0.104 | -0.0354 | -0.0313 | -0.0734 | -0.0024 | -0.032 | -0.0621 | -0.0777 | -0.0797 | -0.0692 | -0.0849 | 0.004 | 0.0279 | -0.0472 | -0.0211 | -0.0217 | -0.0931 |
| CCN(CCO)CCCOc1ccc2c(Nc3cc(CC(=O)Nc4cccc(F)c4)[nH]n3)ncnc2c1 [AZD2811] + O=C(c1cc(Cc2n[nH]c(=O)c3ccccc23)ccc1F)N1CCN(C(=O)C2CC2)CC1 [Olaparib] (first compound max 1 µM, 7x7, partner max 10 µM) | -0.0015 | 0.0034 | -0.0669 | 0.0173 | -0.03 | -0.0376 | -0.0415 | 0.0298 | 0.0545 | -0.0135 | 0.0014 | 0.0461 | -0.0191 | -0.0184 | 0.0181 | -0.0196 | 0.0243 | -0.0236 | 0.0206 | 0.0304 |
| CN(CCO)CC[C@H](CSc1ccccc1)Nc1ccc(S(=O)(=O)NC(=O)c2ccc(N3CCC([C@@H](O)c4ccccc4-c4ccc(Cl)cc4)CC3)cc2)cc1S(=O)(=O)C(F)(F)F [AZD4320] + CN(C)CCCOc1ccc(-c2ccc3ncc4c(c3c2)n(C2CCOCC2)c(=O)n4C)cn1 [AZD0156] (first compound max 1 µM, 7x7, partner max 1 µM) | -0.0354 | -0.0319 | -0.0491 | -0.0096 | 0.024 | -0.0619 | -0.087 | 0.0129 | 0.0446 | -0.0485 | -0.016 | -0.0626 | 0.0214 | -0.0606 | -0.0477 | -0.0595 | -0.0208 | -0.0068 | -0.0379 | -0.0489 |
| COc1nnc2ccc(N3CCC(c4ccc(OCCN5CCN(C)C(=O)[C@H]5C)cc4)CC3)nn12 [AZD5153] + C=CCn1c(=O)c2cnc(Nc3ccc(N4CCN(C)CC4)cc3)nc2n1-c1cccc(C(C)(C)O)n1 [AZD1775] (first compound max 1 µM, partner max 1 µM) | -0.0585 | -0.0316 | -0.026 | -0.0125 | -0.011 | -0.0674 | -0.0369 | -0.0336 | 0.0656 | -0.0699 | -0.0806 | -0.0019 | -0.107 | -0.0299 | -0.0249 | 0.0068 | -0.127 | -0.0689 | 0.0076 | -0.0451 |
| COc1nnc2ccc(N3CCC(c4ccc(OCCN5CCN(C)C(=O)[C@H]5C)cc4)CC3)nn12 [AZD5153] + CC1(C)CCC(CN2CCN(c3ccc(C(=O)NS(=O)(=O)c4ccc(NCC5CCOCC5)c([N+](=O)[O-])c4)c(Oc4cnc5[nH]ccc5c4)c3)CC2)=C(c2ccc(Cl)cc2)C1 [Venetoclax] (first compound max 1 µM, 7x7, partner max 1 µM) | -0.0031 | 0.0179 | -0.0442 | -0.0962 | -0.0183 | -0.0716 | -0.0487 | -0.0419 | -0.0718 | -0.0404 | -0.072 | -0.0739 | -0.0084 | -0.0558 | -0.0746 | -0.0554 | -0.0826 | 0.0081 | -0.0486 | -0.0441 |
| COc1nnc2ccc(N3CCC(c4ccc(OCCN5CCN(C)C(=O)[C@H]5C)cc4)CC3)nn12 [AZD5153] + CCN(CCO)CCCOc1ccc2c(Nc3cc(CC(=O)Nc4cccc(F)c4)[nH]n3)ncnc2c1 [AZD2811] (first compound max 1 µM, 7x7, partner max 1 µM) | -0.0576 | -0.0403 | -0.0262 | -0.0598 | 0.003 | -0.0853 | -0.0263 | -0.0009 | -0.0176 | -0.0527 | -0.0399 | 0.0109 | -0.0434 | -0.0469 | -0.0372 | -0.0785 | -0.0096 | -0.109 | -0.0342 | -0.0409 |
| COc1nnc2ccc(N3CCC(c4ccc(OCCN5CCN(C)C(=O)[C@H]5C)cc4)CC3)nn12 [AZD5153] + C[C@@H]1COCCN1C2=NC(=NC(=C2)C3(CC3)[S@](=N)(=O)C)C4=C5C=CNC5=NC=C4 [AZD6738] (first compound max 1 µM, 7x7, partner max 10 µM) | -0.0139 | 0.097 | 0.0541 | -0.0044 | -0.0066 | -0.0276 | -0.0137 | 0.0074 | 0.0743 | 0.0295 | -0.0292 | 0.0077 | -0.111 | 0.0364 | 0.0398 | -0.0201 | 0.0015 | -0.0601 | 0.0315 | -0.0157 |
| COc1nnc2ccc(N3CCC(c4ccc(OCCN5CCN(C)C(=O)[C@H]5C)cc4)CC3)nn12 [AZD5153] + Cc1c2c(nn1C)CSCc1cc(n(C)n1)CSc1cc(c3ccccc3c1)OCCCc1c(C(=O)O)n(C)c3c-2c(Cl)ccc13 [AZD5991] (first compound max 1 µM, 7x7, partner max 1 µM) | 0.0452 | 0.0265 | 0.059 | -0.0044 | -0.0073 | -0.0482 | -0.0369 | -0.0277 | -0.0322 | -0.0579 | -0.0445 | 0.0438 | -0.0085 | -0.0398 | -0.0233 | -0.0091 | 0.0557 | -0.0523 | -0.0174 | -0.0069 |
| COc1nnc2ccc(N3CCC(c4ccc(OCCN5CCN(C)C(=O)[C@H]5C)cc4)CC3)nn12 [AZD5153] + Cn1cnc2c(F)c(Nc3ccc(Br)cc3Cl)c(C(=O)NOCCO)cc21 [Selumetinib] (first compound max 1 µM, 7x7, partner max 10 µM) | -0.0019 | -0.053 | -0.0565 | -0.0748 | 0.0345 | -0.0724 | -0.0627 | 0.0528 | 0.0402 | 0.025 | 0.031 | -0.0371 | -0.0447 | -0.0146 | -0.0071 | -0.0816 | -0.0044 | -0.0392 | -0.0155 | -0.0356 |
| Cc1c2c(nn1C)CSCc1cc(n(C)n1)CSc1cc(c3ccccc3c1)OCCCc1c(C(=O)O)n(C)c3c-2c(Cl)ccc13 [AZD5991] + C1CN(CCC1(C(=O)N[C@@H](CCO)C2=CC=C(C=C2)Cl)N)C3=NC=NC4=C3C=CN4 [Capivasertib] (first compound max 1 µM, 7x7, partner max 3 µM) | 0.0274 | 0.0354 | 0.0003 | 0.0392 | 0.0528 | -0.0422 | -0.0994 | 0.0078 | -0.002 | -0.009 | -0.013 | 0.0125 | 0.0394 | 0.0322 | -0.0051 | 0.0036 | -0.0077 | 0.0078 | -0.0109 | -0.0229 |
| Cc1c2c(nn1C)CSCc1cc(n(C)n1)CSc1cc(c3ccccc3c1)OCCCc1c(C(=O)O)n(C)c3c-2c(Cl)ccc13 [AZD5991] + C=CCn1c(=O)c2cnc(Nc3ccc(N4CCN(C)CC4)cc3)nc2n1-c1cccc(C(C)(C)O)n1 [AZD1775] (first compound max 1 µM, partner max 1 µM) | 0.024 | -0.0345 | 0.054 | 0.0056 | 0.0097 | -0.0288 | 0.0172 | -0.0032 | 0.0087 | 0.025 | -0.118 | -0.0424 | -0.0326 | -0.0171 | -0.0088 | -0.0115 | -0.0124 | -0.0538 | 0.0475 | -0.0275 |
| Cc1c2c(nn1C)CSCc1cc(n(C)n1)CSc1cc(c3ccccc3c1)OCCCc1c(C(=O)O)n(C)c3c-2c(Cl)ccc13 [AZD5991] + CC1(C)CCC(CN2CCN(c3ccc(C(=O)NS(=O)(=O)c4ccc(NCC5CCOCC5)c([N+](=O)[O-])c4)c(Oc4cnc5[nH]ccc5c4)c3)CC2)=C(c2ccc(Cl)cc2)C1 [Venetoclax] (first compound max 1 µM, 7x7, partner max 1 µM) | 0.0296 | -0.0137 | 0.0055 | -0.0224 | 0.167 | -0.0574 | -0.132 | 0.0445 | 0.0141 | -0.0061 | -0.0487 | -0.023 | -0.0034 | -0.012 | -0.0125 | -0.0059 | 0.0087 | 0.128 | -0.0429 | -0.0433 |
| Cc1c2c(nn1C)CSCc1cc(n(C)n1)CSc1cc(c3ccccc3c1)OCCCc1c(C(=O)O)n(C)c3c-2c(Cl)ccc13 [AZD5991] + C[C@@H]1COCCN1C2=NC(=NC(=C2)C3(CC3)[S@](=N)(=O)C)C4=C5C=CNC5=NC=C4 [AZD6738] (first compound max 1 µM, 7x7, partner max 10 µM) | 0.0869 | -0.0205 | 0.0543 | -0.0078 | 0.0036 | 0.0213 | 0.0201 | 0.0002 | 0.0168 | 0.0407 | -0.0405 | 0.0652 | -0.0392 | 0.025 | 0.0119 | 0.0592 | 0.005 | 0.0167 | 0.0023 | 0.0218 |

From the supplement of paper PMC11061612
